In patent US20130217664A1, “NOVEL COMPOUNDS USEFUL FOR THE TREATMENT OF DEGENERATIVE AND INFLAMMATORY DISEASES” (priority 2012, published 2013):
pIC50: −log10 of the molar value.

How the values were obtained:
human JAK1 = target: T1, human JAK1 (Homo sapiens, UniProt P23458); assay: JAK1 inhibition assay (polyGT substrate / Ulight-JAK1 peptide); format: biochemical; details: recombinant human JAK1 catalytic domain; polyGT or Ulight-JAK1 peptide assay
T1 construct: catalytic domain, amino acids 866-1154; catalog number PV4774; purchased Invitrogen PV4774
T1 sequence (P23458 866-1154): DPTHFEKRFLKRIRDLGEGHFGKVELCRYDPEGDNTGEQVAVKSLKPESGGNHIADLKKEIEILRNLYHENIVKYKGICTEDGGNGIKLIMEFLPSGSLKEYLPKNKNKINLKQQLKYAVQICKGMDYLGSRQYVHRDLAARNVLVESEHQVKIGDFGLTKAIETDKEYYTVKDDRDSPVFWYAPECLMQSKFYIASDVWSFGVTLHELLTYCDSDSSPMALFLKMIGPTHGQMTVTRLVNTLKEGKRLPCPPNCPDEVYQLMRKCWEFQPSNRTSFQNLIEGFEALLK
How it was run: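 Two formats. PolyGT radiometric: 45 min at 30 °C, stopped with phosphoric acid, counted as cpm. Ulight-JAK1 peptide: 60 min at room temperature, stopped with Eu-anti-phosphotyrosine/EDTA, read as RFU. Percent inhibition normalised to vehicle and 10 μM staurosporine.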

human JAK2 = target: T2, human JAK2 (Homo sapiens, UniProt O60674); assay: JAK2 inhibition assay (polyGT substrate / Ulight-JAK1 peptide); format: biochemical; details: recombinant human JAK2 catalytic domain; polyGT or Ulight-JAK1 peptide assay
T2 construct: catalytic domain (amino acids 808-1132; catalog number PV4210); GST; purchased Invitrogen PV4210
T2 sequence (O60674 808-1132): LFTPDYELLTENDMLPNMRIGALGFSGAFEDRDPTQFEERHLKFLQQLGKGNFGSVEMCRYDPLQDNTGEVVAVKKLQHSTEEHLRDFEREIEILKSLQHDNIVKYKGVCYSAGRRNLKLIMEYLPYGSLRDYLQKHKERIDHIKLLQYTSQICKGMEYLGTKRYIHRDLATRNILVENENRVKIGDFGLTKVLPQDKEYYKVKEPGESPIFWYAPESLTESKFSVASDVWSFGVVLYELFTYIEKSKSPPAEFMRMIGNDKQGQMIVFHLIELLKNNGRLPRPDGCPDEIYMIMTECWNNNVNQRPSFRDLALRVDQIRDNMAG
How it was run: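 Radiometric: 0.025 mU JAK2 with 2.5 μg polyGT, 1 μM ATP plus ^33P-ATP in MOPS pH 7.5 buffer, 1% DMSO, 90 min at 30° C.; filter counting. Alternative TR-FRET format with Ulight-JAK1 peptide, 60 min at room temperature, Eu-anti-phosphotyrosine detection.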

human JAK3 = target: T3, human JAK3 (Homo sapiens, UniProt P52333); assay: JAK3 inhibition assay; format: biochemical; details: recombinant human JAK3 catalytic domain; polyGT substrate
T3 construct: catalytic domain (amino acids 781-1124; catalog number PV3855); purchased Invitrogen PV3855
T3 sequence (P52333 781-1124): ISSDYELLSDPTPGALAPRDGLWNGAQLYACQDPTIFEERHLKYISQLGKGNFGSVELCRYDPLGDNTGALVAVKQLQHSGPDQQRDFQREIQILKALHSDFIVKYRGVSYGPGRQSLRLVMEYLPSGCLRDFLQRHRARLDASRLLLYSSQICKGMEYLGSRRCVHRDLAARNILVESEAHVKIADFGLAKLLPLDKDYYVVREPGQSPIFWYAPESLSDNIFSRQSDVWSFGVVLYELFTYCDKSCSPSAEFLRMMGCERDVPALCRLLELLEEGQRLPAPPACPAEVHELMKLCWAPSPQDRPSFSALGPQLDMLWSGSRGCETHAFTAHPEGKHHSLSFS
How it was run: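 Radiometric kinase assay: 0.5 ng JAK3 with 2.5 μg polyGT in Tris pH 7.5/MgCl2 buffer, 1 μM ATP plus 0.25 μCi 33P-γ-ATP, 1% DMSO, 45 min at 30 °C, stopped with phosphoric acid.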

BA/F3 cell line = assay: BA/F3 viability assay; details: Mus musculus, BaF3, 48 h, read-out: BA/F3 IC50
human TYK2 = target: T4, human TYK2 (Homo sapiens, UniProt P29597); assay: TYK2 inhibition assay; format: biochemical; details: recombinant human TYK2 catalytic domain, polyGT substrate
T4 construct: catalytic domain (amino acids 871-1187; catalog number 08-147); purchased Carna Biosciences 08-147
T4 sequence (P29597 871-1187): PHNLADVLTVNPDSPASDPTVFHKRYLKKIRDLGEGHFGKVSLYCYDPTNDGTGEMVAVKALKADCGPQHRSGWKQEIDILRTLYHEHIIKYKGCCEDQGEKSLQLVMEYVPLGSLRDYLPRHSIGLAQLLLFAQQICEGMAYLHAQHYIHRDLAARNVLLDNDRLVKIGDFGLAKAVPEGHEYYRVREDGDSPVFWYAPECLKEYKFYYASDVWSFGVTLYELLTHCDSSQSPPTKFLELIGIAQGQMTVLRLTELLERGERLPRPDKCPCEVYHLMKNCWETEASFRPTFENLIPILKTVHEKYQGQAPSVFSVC
How it was run: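 Radiometric kinase reaction run 90 min at 30 °C, stopped with phosphoric acid, washed and scintillation-counted.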

CTLL-2 cell line = assay: CTLL2 viability assay; format: cell-based; details: Mus musculus, IL-2 dependent CTLL2 viability, 24 h, ATP-lite
From the text: The protocol describes the methods to analyse the activity of compounds on their ability to sustain the IL2-dependent viability of CTLL2.
Final DMSO concentration was 0.1%.

## CCc1cc(C2CN(CCC(F)(F)F)C2)ncc1N(C)c1cc2c(cn1)ncn2C [Compound 341, {4-Ethyl-6-[1-(3,3,3-trifluoro-propyl)-azetidin-3-yl]-pyridin-3-yl}-methyl-(1-methyl-1H-imidazo[4,5-c]pyridin-6-yl)-amine]
Human JAK1
  pIC50: 6.30 to 7.00
Human JAK2
  pIC50: < 6.00
Human JAK3
  pIC50: < 6.00
BA/F3 cell line
  pIC50: < 5.30
Human TYK2
  pIC50: < 6.00
CTLL-2 cell line
  pIC50: < 6.00

## CCc1cc(C2(CCNS(=O)(=O)C(F)F)COC2)ccc1N(C)c1cc2c(cn1)ncn2C [Compound 397, N-[2-(3-{3-Ethyl-4-[methyl-(1-methyl-1H-imidazo[4,5-c]pyridin-6-yl)-amino]-phenyl}-oxetan-3-yl)-ethyl]-C,C-difluoro-methanesulfonamide]
Human JAK1
  pIC50: 7.00 to 11.00
Human JAK2
  pIC50: 7.00 to 11.00
Human JAK3
  pIC50: 7.00 to 11.00
BA/F3 cell line
  pIC50: 5.30 to 6.00
Human TYK2
  pIC50: 7.00 to 11.00
CTLL-2 cell line
  pIC50: < 6.00

## CCc1cc(C(C#N)N2CCNC(=O)C2)ccc1N(C)c1cc2c(cn1)ncn2C (stereo not drawn) [Compound 410, {3-Ethyl-4-[methyl-(1-methyl-1H-imidazo[4,5-c]pyridin-6-yl)-amino]-phenyl}-(3-oxo-piperazin-1-yl)-acetonitrile]
Human JAK1
  pIC50: 7.00 to 11.00
Human JAK2
  pIC50: 7.00 to 11.00
Human JAK3
  pIC50: 7.00 to 11.00
BA/F3 cell line
  pIC50: < 5.30
Human TYK2
  pIC50: 7.00 to 11.00
CTLL-2 cell line
  pIC50: < 6.00

## CCc1cc(CNCC(F)(F)F)ccc1N(C)c1cc2c(cn1)ncn2C [Compound 380]
Human JAK1
  pIC50: 7.00 to 11.00
Human JAK2
  pIC50: 7.00 to 11.00
Human JAK3
  pIC50: 6.30 to 7.00
BA/F3 cell line
  pIC50: 5.30 to 6.00
Human TYK2
  pIC50: 6.30 to 7.00
CTLL-2 cell line
  pIC50: < 6.00

## CCc1cc(CC#N)ncc1N(C)c1cc2c(cn1)ncn2C [Compound 407, {4-Ethyl-5-[methyl-(1-methyl-1H-imidazo[4,5-c]pyridin-6-yl)-amino]-pyridin-2-yl}-acetonitrile]
Human JAK1
  pIC50: 7.00 to 11.00
Human JAK2
  pIC50: 7.00 to 11.00
Human JAK3
  pIC50: 6.00 to 6.30
BA/F3 cell line
  pIC50: < 5.30
Human TYK2
  pIC50: 6.30 to 7.00
CTLL-2 cell line
  pIC50: < 6.00

## CCc1cc(CN(CC#N)S(C)(=O)=O)cc(F)c1N(C)c1cc2c(cn1)ncn2C [Compound 357, N-Cyanomethyl-N-{3-ethyl-5-fluoro-4-[methyl-(1-methyl-1H-imidazo[4,5-c]pyridin-6-yl)-amino]-benzyl}-methanesulfonamide]
Human JAK1
  pIC50: 7.00 to 11.00
Human JAK2
  pIC50: 7.00 to 11.00
Human JAK3
  pIC50: 7.00 to 11.00
BA/F3 cell line
  pIC50: 5.30 to 6.00
Human TYK2
  pIC50: 7.00 to 11.00
CTLL-2 cell line
  pIC50: < 6.00

## CN(c1cc2c(cn1)ncn2C)c1ccc(C2CN(S(=O)(=O)N(C)C)C2)cc1OC(F)F [Compound 369]
Human JAK1
  pIC50: 7.00 to 11.00
Human JAK2
  pIC50: 6.30 to 7.00
Human JAK3
  pIC50: 6.30 to 7.00
BA/F3 cell line
  pIC50: 5.30 to 6.00
Human TYK2
  pIC50: 6.30 to 7.00
CTLL-2 cell line
  pIC50: < 6.00

## CN(c1cc2c(cn1)ncn2C)c1ccc(CNS(C)(=O)=O)cc1OC(F)F [Compound 429, N-{3-Difluoromethoxy-4-[methyl-(1-methyl-1H-imidazo[4,5-c]pyridin-6-yl)-amino]-benzyl}-methanesulfonamide]
Human JAK1
  pIC50: 7.00 to 11.00
Human JAK2
  pIC50: 7.00 to 11.00
Human JAK3
  pIC50: 7.00 to 11.00
BA/F3 cell line
  pIC50: < 5.30
Human TYK2
  pIC50: 6.30 to 7.00
CTLL-2 cell line
  pIC50: < 6.00

## CCc1cc(C2CN(CC#N)C2)ccc1N(C)c1cc2c(cn1)ncn2C [Compound 351, (3-{3-Ethyl-4-[methyl-(1-methyl-1H-imidazo[4,5-c]pyridin-6-yl)-amino]-phenyl}-azetidin-1-yl)-acetonitrile]
Human JAK1
  pIC50: 7.00 to 11.00
Human JAK2
  pIC50: 7.00 to 11.00
Human JAK3
  pIC50: 6.30 to 7.00
BA/F3 cell line
  pIC50: < 5.30
Human TYK2
  pIC50: 6.30 to 7.00
CTLL-2 cell line
  pIC50: < 6.00

## CN(c1cc2c(cn1)ncn2C)c1ccc(C2CN(S(=O)(=O)C(F)F)C2)cc1OC(F)F [Compound 370, {4-[1-(Difluoro-methanesulfonyl)-azetidin-3-yl]-2-difluoromethoxy-henyl}-methyl-(1-methyl-1H-imidazo[4,5-c]pyridin-6-yl)-amine]
Human JAK1
  pIC50: 7.00 to 11.00
Human JAK2
  pIC50: 7.00 to 11.00
Human JAK3
  pIC50: 7.00 to 11.00
BA/F3 cell line
  pIC50: 5.30 to 6.00
Human TYK2
  pIC50: 6.30 to 7.00
CTLL-2 cell line
  pIC50: < 6.00
